Test results reported in patent publication US8192962B2, “Processes for detecting toxic substances” (Daikin Industries, Ltd., priority 2001, dated 2012).

Test system: Metabolism protein genes
Assay: DNA chip mRNA expression in yeast, metabolism protein genes (Table 7)
Format: cell-based, Saccharomyces cerevisiae S288C
Description: Yeast (Saccharomyces cerevisiae S288C (α SUC2mal mel gap2 CUP1)) were incubated at 25° C. on YPD medium (yeast extract 1%, polypepton 2%, glucose 2%). One of toxic chemical substances was added to the cells at logarithmic growth phase, and the cells were further incubated for two hours. Cells were cultured without any chemical substance in the same condition, and were used as control. Concentrations of the chemical substances were defined to inhibit the growth of the yeast but not lead to death.
After completion of the incubation, the culture was centrifuged to collect the cells. To the cells, sodium acetate buffer (50 mM sodium acetate, 10 mM EDTA, 1% SDS) was added, and the mixture was shaken at 65° C. for five minutes, followed by returning to room temperature, and obtaining the supernatant, of which the procedures were repeated two times. To the supernatant, ½ amount of a solution of phenol/chloroform was added, and the mixture was centrifuged to give a supernatant, which was added with an equal amount of chloroform, and the mixture was centrifuged to give a supernatant. To the supernatant, an equal amount of isopropanol containing 0.3 M sodium acetate was added, and the mixture was allowed to stand at room temperature for 30 minutes, after which the mixture was centrifuged to give a sediment of the whole RNAs. Seventy % ethanol was added to the sediment, and the mixture was again centrifuged to give a sediment, which was then dried and dissolved in water. mRNA was isolated from the whole RNAs as followings. In view of the fact that a poly A chain is attached to the 3′ terminus of mRNA, a polynucleotide having a poly T structure which was immobilized on the surface of latex beads was used to trap the mRNA, and then the mRNA was washed and eluted with spine column (Oligotex-dT30<Super>mRNA Purification Kit, Takara). Reverse transcription of the mRNA was conducted with a reverse transcriptase (Super Script II Reverse Transcriptase; catalogue No. 18064-014, GibcoBRL) using fluorescence-labeled nucleotides to give cDNAs that were introduced with Cy3-dUTP or Cy5-dUTP during the reverse transcription.
The labeled cDNAs were dissolved in TE buffer (10mM Tris-HCl/1 mM EDTA, pH8.0), and the solution was dropped on the DNA chip containing the whole genes of yeast (DNA Chip Research Inc. Japan) so that the cDNAs were hybridized on the DNA chip at 65° C. for over 12 hours. The fluoresces intensity of the DNA chip was read with a scanner, and the ratio relative to the fluorescence intensity resulting from the absence of chemical substance was estimated as the following, which is shown in Tables 1 to 9: […]

## O=[N+]([O-])c1cc[n+]([O-])c2ccccc12 [(5), 4-nitroquinolin-N-oxide]
Yeast gene YAL012W
  The level of expressed mRNA in the presence of chemical substance/The level of expressed mRNA in the absence of chemical substance: 0.6
Yeast gene YAL038W
  The level of expressed mRNA in the presence of chemical substance/The level of expressed mRNA in the absence of chemical substance: 1.4
Yeast gene YAR071W
  The level of expressed mRNA in the presence of chemical substance/The level of expressed mRNA in the absence of chemical substance: 1.6
Yeast gene YBR003W
  level of expressed mRNA in the presence/in the absence of chemical substance: 0.7
Yeast gene YBR011C
  level of expressed mRNA in the presence/in the absence of chemical substance: 0.9
Yeast gene YBR020W
  level of expressed mRNA in the presence/in the absence of chemical substance: 1.0
Yeast gene YBR023C
  The level of expressed mRNA in the presence of chemical substance/The level of expressed mRNA in the absence of chemical substance: 0.8
Yeast gene YBR029C
  The level of expressed mRNA in the presence of chemical substance/The level of expressed mRNA in the absence of chemical substance: 1.4
Yeast gene YBR183W
  The level of expressed mRNA in the presence of chemical substance/The level of expressed mRNA in the absence of chemical substance: 0.9
Yeast gene YBR222C
  The level of expressed mRNA in the presence of chemical substance/The level of expressed mRNA in the absence of chemical substance: 0.7
Yeast gene YBR256C
  The level of expressed mRNA in the presence of chemical substance/The level of expressed mRNA in the absence of chemical substance: 1.6
Yeast gene YBR299W
  The level of expressed mRNA in the presence of chemical substance/The level of expressed mRNA in the absence of chemical substance: 1.6
Yeast gene YCL009C
  The level of expressed mRNA in the presence of chemical substance/The level of expressed mRNA in the absence of chemical substance: 0.7
Yeast gene YCL064C
  The level of expressed mRNA in the presence of chemical substance/The level of expressed mRNA in the absence of chemical substance: 1.4
Yeast gene YCR010C
  level of expressed mRNA in the presence/in the absence of chemical substance: 1.7
Yeast gene YCR034W
  level of expressed mRNA in the presence/in the absence of chemical substance: 0.9
Yeast gene YCR048W
  The level of expressed mRNA in the presence of chemical substance/The level of expressed mRNA in the absence of chemical substance: 0.9
Yeast gene YCR098C
  The level of expressed mRNA in the presence of chemical substance/The level of expressed mRNA in the absence of chemical substance: 1.4
Yeast gene YDR019C
  The level of expressed mRNA in the presence of chemical substance/The level of expressed mRNA in the absence of chemical substance: 0.9
Yeast gene YDR050C
  level of expressed mRNA in the presence/in the absence of chemical substance: 0.9
Yeast gene YDR073W
  level of expressed mRNA in the presence/in the absence of chemical substance: 1.2
Yeast gene YDR123C
  level of expressed mRNA in the presence/in the absence of chemical substance: 1.6
Yeast gene YDR178W
  level of expressed mRNA in the presence/in the absence of chemical substance: 0.9
Yeast gene YDR277C
  level of expressed mRNA in the presence/in the absence of chemical substance: 0.8
Yeast gene YDR284C
  level of expressed mRNA in the presence/in the absence of chemical substance: 0.8
Yeast gene YDR345C
  level of expressed mRNA in the presence/in the absence of chemical substance: 1.3
Yeast gene YDR380W
  The level of expressed mRNA in the presence of chemical substance/The level of expressed mRNA in the absence of chemical substance: 1.1
Yeast gene YDR400W
  level of expressed mRNA in the presence/in the absence of chemical substance: 1.0
Yeast gene YDR408C
  level of expressed mRNA in the presence/in the absence of chemical substance: 0.9
Yeast gene YDR483W
  level of expressed mRNA in the presence/in the absence of chemical substance: 0.7
Yeast gene YDR497C
  The level of expressed mRNA in the presence of chemical substance/The level of expressed mRNA in the absence of chemical substance: 0.7
Yeast gene YDR502C
  The level of expressed mRNA in the presence of chemical substance/The level of expressed mRNA in the absence of chemical substance: 1.5
Yeast gene YDR516C
  The level of expressed mRNA in the presence of chemical substance/The level of expressed mRNA in the absence of chemical substance: 1.3
Yeast gene YEL063C
  level of expressed mRNA in the presence/in the absence of chemical substance: 1.2
Yeast gene YER015W
  level of expressed mRNA in the presence/in the absence of chemical substance: 1.3
Yeast gene YER026C
  The level of expressed mRNA in the presence of chemical substance/The level of expressed mRNA in the absence of chemical substance: 1.2
Yeast gene YER053C
  The level of expressed mRNA in the presence of chemical substance/The level of expressed mRNA in the absence of chemical substance: 0.6
Yeast gene YER069W
  The level of expressed mRNA in the presence of chemical substance/The level of expressed mRNA in the absence of chemical substance: 1.5
Yeast gene YER081W
  level of expressed mRNA in the presence/in the absence of chemical substance: 1.1
Yeast gene YER096W
  The level of expressed mRNA in the presence of chemical substance/The level of expressed mRNA in the absence of chemical substance: 1.3
Yeast gene YER120W
  level of expressed mRNA in the presence/in the absence of chemical substance: 0.8
Yeast gene YER178W
  The level of expressed mRNA in the presence of chemical substance/The level of expressed mRNA in the absence of chemical substance: 0.7
Yeast gene YFL011W
  level of expressed mRNA in the presence/in the absence of chemical substance: 1.3
Yeast gene YFL014W
  The level of expressed mRNA in the presence of chemical substance/The level of expressed mRNA in the absence of chemical substance: 1.0
Yeast gene YFL030W
  The level of expressed mRNA in the presence of chemical substance/The level of expressed mRNA in the absence of chemical substance: 1.1
Yeast gene YFL031W
  The level of expressed mRNA in the presence of chemical substance/The level of expressed mRNA in the absence of chemical substance: 1.0
